From US10118928B2, “Treatment of H. pylori infections using MTAN inhibitors” (ALBERT EINSTEIN COLLEGE OF MEDICINE, INC., priority 2014, dated 2018)

Test system: H. pylori
Assay: MIC90 against H. pylori, growth on tryptic soy agar with 5% horse blood
Assay type: cell-based
Parameters: unit not given here
Details: Table 1; 72 h, microaerophilic, 37° C.
Experimental: Bacterial Growth. H. pylori were grown for 72 hours under microaerophilic condition (5% O2, 10% CO2 and 85% N2) at 37° C. on tryptic soy agar with 5% horse blood. To determine the MIC values, the test substance was added to the gel solution right before pouring. To compare the zones of inhibition, specific antibiotics were added to the center of disc after spreading H. pylori, and then H. pylori was allowed to grow for 72 hours under microaerophilic condition at 37° C.

Compound	MIC90 against H. pylori
Nc1ncnc2c(CN[C@H](CO)CSc3cnccn3)c[nH]c12	8
CCCCC[C@@H](CO)NCc1c[nH]c2c(N)ncnc12	8
CCCCCC[C@@H](CO)NCc1c[nH]c2c(N)ncnc12	8
CCCCSC[C@@H](CO)NCc1c[nH]c2c(N)ncnc12	16
CCCC[C@@H](CO)NCc1c[nH]c2c(N)ncnc12	16
CCC[C@@H](CO)NCc1c[nH]c2c(N)ncnc12	40
CCCCCCCCC[C@@H](CO)NCc1c[nH]c2c(N)ncnc12	80
Nc1ncnc2c(CN[C@H](CO)CSCc3ccccc3)c[nH]c12	>80
CCCC[C@H](CO)NCc1c[nH]c2c(N)ncnc12	>80
Nc1ncnc2c(CN[C@H](CO)CSc3ccc(Cl)cc3)c[nH]c12	>80
CSC[C@@H](O)[C@@H](CO)NCc1c[nH]c2c(N)ncnc12	>80
C[C@@H](CO)NCc1c[nH]c2c(N)ncnc12	>80
Nc1ncnc2c(CN[C@H](CO)c3ccccc3)c[nH]c12	>80
CC[C@@H](CO)NCc1c[nH]c2c(N)ncnc12	>80
CSC[C@H](O)[C@H](CO)NCc1c[nH]c2c(N)ncnc12	>80
Nc1ncnc2c(CN[C@H](CO)Cc3c[nH]cn3)c[nH]c12	>80
CCCCCCCSC[C@@H](CO)NCc1c[nH]c2c(N)ncnc12	80
CC(C)[C@@H](CO)NCc1c[nH]c2c(N)ncnc12	>80
CC(C)C[C@@H](CO)NCc1c[nH]c2c(N)ncnc12	>80
CSC[C@@H](CO)NCc1c[nH]c2c(N)ncnc12	>80
CSC[C@H](CO)NCc1c[nH]c2c(N)ncnc12	>80
CC[C@H](C)[C@@H](CO)NCc1c[nH]c2c(N)ncnc12	>80

Same assay, conditions: Table 2; 72 h, microaerophilic, 37° C.

Compound	MIC90 against H. pylori
CCCCCCCCNCc1c[nH]c2c(N)ncnc12	>80
Nc1ncnc2c(CNCCO)c[nH]c12	>80
